Experimental data published in patent US20240059677A1, “SUBSTITUTED PYRIMIDINE DERIVATIVES AS NICOTINIC ACETYLCHOLINESTERASE RECEPTOR ALPHA 6 MODULATOR” (priority 2020, published 2024).
Marks after values point to notes of the source that are not given here.

test system: tremulous jaw movements induced by tacrine in male C57BL/6J mice; test: tacrine-induced tremulous jaw movements, mice; format: in vivo; conditions: mouse; 10 mg/kg p.o.; tacrine 5 mg/kg i.p.; n=10/group; tremulous jaw movements relative to vehicle (100%)
Description: (§1) Resting tremor is one of the classic symptoms of Parkinson's disease. These characteristic tremors can be modelled pharmacologically in preclinical models using cholinomimetics such as the acetylcholine esterase inhibitor, tacrine (5 mg/kg, i.p.) (Salamone et al, Prog Neurobiol 56: 591-611 1998) to induce tremulous jaw movement behaviours. These tremulous jaw movements are thought to arise from an imbalance between cholinergic and dopaminergic neurotransmission and are thought to mimic the imbalances in neurotransmission resulting from the dopamine loss seen in Parkinson's disease (Aosaki et al, Geriatr Gerontol Int 10: s148-s157 2010). These tremors can be reversed by agents increasing the dopamine tone, such as dopamine agonists (Salamone et al, Behav Brain Res 156: 173-179 2005).
The objective of these studies was to evaluate the effects of oral administration of Example Compounds on tremulous jaw movements induced by tacrine in male C57BL/6J mice or Sprague-Dawley rats. Animals were administered vehicle (0.5% methylcellulose, p.o.) or Example Compound (across a range of doses; 10 mg/kg, p.o. data shown) 15 to 60 minutes prior to behavioural testing (n=10/group). Tacrine (5 mg/kg, i.p.) was administered to all animals immediately before behavioural assessment commenced. For each animal the latency to the first tremulous jaw movement and the total duration of the tremulous jaw movements post tacrine administration were recorded.
illustrative data shown is percentage attenuation of tacrine-induced tremulous jaw movements relative to vehicle (100%). Each compound shown was tested at 10 mg/kg p.o.
(§2) Statistical significance was assessed using an unpaired student's t-test vs vehicle * p<0.05, ***p<0.001.

| Compound | % Decrease from vehicle or percentage relative to vehicle (100%), (mean ± SEM) |
| --- | --- |
| CCN1CCC[C@H](Nc2ncc(-c3ccc(F)cc3F)c(C)n2)C1.O=C(O)/C=C/C(=O)O (single isomer, unassigned) [Example 78b] | 23.8 ± 7.7*** % |
| Cc1nc(NC[C@H]2CCCN2C)ncc1-c1ccc(F)cc1F [Example 24b, (R)-5-(2,4-difluorophenyl)-4-methyl-N-((1-methylpyrrolidin-2-yl)methyl) pyrimidin-2-amine] | 23.9 ± 3.8*** % |
| Cc1nc(NC[C@@H]2CCCN2)ncc1-c1ccc(F)cc1F [Example 94b, (S)-5-(2,4-difluorophenyl)-4-methyl-N-(pyrrolidin-2-ylmethyl)pyrimidin-2-amine] | 79.9 ± 7.2% |

test system: tremulous jaw movements induced by tacrine in Sprague-Dawley rats; test: tacrine-induced tremulous jaw movements, rats; format: in vivo; conditions: rat; 10 mg/kg p.o.; tacrine 5 mg/kg i.p.; n=10/group; tremulous jaw movements relative to vehicle (100%)
Description: as §1
The objective of these studies was to evaluate the effects of oral administration of Example Compounds on tremulous jaw movements induced by tacrine in male C57BL/6J mice or Sprague-Dawley rats. […] For each animal the latency to the first tremulous jaw movement and the total duration of the tremulous jaw movements post tacrine administration were recorded. […]
as §2

| Compound | % Decrease from vehicle or percentage relative to vehicle (100%), (mean ± SEM) |
| --- | --- |
| CC(C)N1CCC(Nc2ncc(-c3ccc(F)cc3F)c(C#N)n2)CC1 [Example 65, 5-(2,4-difluorophenyl)-2-((1-isopropylpiperidin-4-yl)amino)pyrimidine-4-carbonitrile] | 30.0 ± 12.8* % |

target: T1, human nAChRα6-α3 chimera, in addition to β2 and β3^V273S subunits (Homo sapiens, UniProt P32297+Q15825); test: fluorescence-based calcium assay: inhibition of nicotine stimulated nAChRα6 activity (FLIPR); conditions: HEK cell line stably expressing the receptor; 10 min pre-incubation, nicotine EC80; 10-point curve, duplicate wells; read-out: IC50
T1 construct: expressed in transfected cells
T1 sequence (Q05901 25-458 V273S): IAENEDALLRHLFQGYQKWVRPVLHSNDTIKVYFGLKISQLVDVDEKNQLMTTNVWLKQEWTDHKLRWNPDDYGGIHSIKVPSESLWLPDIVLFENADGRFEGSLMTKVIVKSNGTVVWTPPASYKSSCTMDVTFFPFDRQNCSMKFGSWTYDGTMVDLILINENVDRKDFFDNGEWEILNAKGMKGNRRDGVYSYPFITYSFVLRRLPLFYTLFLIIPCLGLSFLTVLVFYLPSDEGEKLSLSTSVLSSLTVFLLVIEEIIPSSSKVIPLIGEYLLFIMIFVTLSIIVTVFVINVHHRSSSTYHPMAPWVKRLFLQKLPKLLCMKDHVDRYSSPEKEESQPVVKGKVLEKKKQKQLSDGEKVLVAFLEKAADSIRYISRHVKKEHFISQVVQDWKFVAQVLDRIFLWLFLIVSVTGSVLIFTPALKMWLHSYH
T1 sequence (P17787 26-502, stated change not applied, further chain): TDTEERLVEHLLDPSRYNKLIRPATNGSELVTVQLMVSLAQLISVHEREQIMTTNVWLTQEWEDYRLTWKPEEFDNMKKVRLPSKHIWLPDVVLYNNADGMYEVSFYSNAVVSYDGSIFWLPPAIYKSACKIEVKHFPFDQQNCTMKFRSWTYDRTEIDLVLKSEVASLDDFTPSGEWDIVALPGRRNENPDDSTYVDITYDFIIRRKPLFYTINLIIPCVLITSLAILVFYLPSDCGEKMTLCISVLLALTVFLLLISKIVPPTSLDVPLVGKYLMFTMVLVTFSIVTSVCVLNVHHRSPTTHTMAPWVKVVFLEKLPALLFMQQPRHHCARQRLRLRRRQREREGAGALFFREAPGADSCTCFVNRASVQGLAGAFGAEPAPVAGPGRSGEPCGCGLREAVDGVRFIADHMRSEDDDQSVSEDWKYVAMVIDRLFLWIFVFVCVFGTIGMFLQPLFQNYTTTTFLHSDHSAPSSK
T1 sequence (Q15825+P32297 fused with the stated changes): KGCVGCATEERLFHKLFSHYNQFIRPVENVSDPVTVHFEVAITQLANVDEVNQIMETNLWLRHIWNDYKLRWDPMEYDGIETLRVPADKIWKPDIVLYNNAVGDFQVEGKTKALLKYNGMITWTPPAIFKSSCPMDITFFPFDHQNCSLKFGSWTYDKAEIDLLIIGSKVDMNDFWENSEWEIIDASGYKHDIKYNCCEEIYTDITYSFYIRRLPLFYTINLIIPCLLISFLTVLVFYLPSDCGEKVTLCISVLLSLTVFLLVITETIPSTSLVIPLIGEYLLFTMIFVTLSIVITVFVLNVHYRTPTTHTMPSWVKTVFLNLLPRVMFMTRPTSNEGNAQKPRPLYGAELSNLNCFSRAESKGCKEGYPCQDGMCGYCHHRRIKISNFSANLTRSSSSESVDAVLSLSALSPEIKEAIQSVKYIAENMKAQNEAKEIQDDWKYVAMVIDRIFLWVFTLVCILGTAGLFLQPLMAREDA
How it was run: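 HEK cells stably expressing the human α6-α3 chimera with β2 and β3^V273S were loaded with calcium dye at 30° C. Compounds were pre-incubated for 10 min before nicotine at EC80, and the fluorescence change was read on a FLIPR. Ten-point half-log concentration-response, duplicate wells.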

| Compound | IC50 [µM] |
| --- | --- |
| CCN1CCC[C@H](Nc2ncc(-c3ccc(F)cc3F)c(C)n2)C1.O=C(O)/C=C/C(=O)O (single isomer, unassigned) [Example 78b] | 0.06 |
| Cc1nc(NC[C@H]2CCCN2C)ncc1-c1ccc(F)cc1F [Example 24b, (R)-5-(2,4-difluorophenyl)-4-methyl-N-((1-methylpyrrolidin-2-yl)methyl) pyrimidin-2-amine] | 0.005 |
| CC(C)N1CCC(Nc2ncc(-c3ccc(F)cc3F)c(C#N)n2)CC1 [Example 65, 5-(2,4-difluorophenyl)-2-((1-isopropylpiperidin-4-yl)amino)pyrimidine-4-carbonitrile] | 0.084 |
| Cc1nc(NC[C@@H]2CCCN2)ncc1-c1ccc(F)cc1F [Example 94b, (S)-5-(2,4-difluorophenyl)-4-methyl-N-(pyrrolidin-2-ylmethyl)pyrimidin-2-amine] | 0.005 |
| O=C(O)/C=C/C(=O)O.[2H]C([2H])([2H])N1CCC[C@@H]1CNc1ncc(-c2ccc(C(F)(F)F)cc2F)c(C)n1 [Example 117, (R)-5-(2-fluoro-4-(trifluoromethyl)phenyl)-4-methyl-N-((1-(trideuteriomethyl)pyrrolidin-2-yl)methyl)pyrimidin-2-amine] | 0.025 |
| O=C(O)/C=C/C(=O)O.[2H]C([2H])([2H])N1CCC[C@H]1CNc1ncc(-c2ccc(C(F)(F)F)cc2F)c(C)n1 [Example 118, (S)-5-(2-fluoro-4-(trifluoromethyl)phenyl)-4-methyl-N-((1-(trideuteriomethyl)pyrrolidin-2-yl)methyl)pyrimidin-2-amine] | 0.075 |
| Cc1nc(N[C@H]2CN3CCC2CC3)ncc1-c1ccc(C(F)(F)F)cc1F [Example 119, (R)—N-(5-(2-fluoro-4-(trifluoromethyl)phenyl)-4-methyl-pyrimidin-2-yl) quinuclidin-3-amine] | 0.155 |
| Cc1nc(N[C@@H]2CN3CCC2CC3)ncc1-c1ccc(C(F)(F)F)cc1F [Example 120, (S)—N-(5-(2-fluoro-4-(trifluoromethyl)phenyl)-4-methyl-pyrimidin-2-yl) quinuclidin-3-amine] | 0.179 |
| Cc1nc(N[C@H]2C[C@H]3CC[C@@H](C2)N3)ncc1-c1ccc(C(F)(F)F)cc1F [Example 121, (1R,3s,5S)—N-(5-(2-fluoro-4-(trifluoromethyl)phenyl)-4-methyl-pyrimidin-2-yl)-8-azabicyclo[3.2.1]octan-3-amine] | 0.191 |
| Cc1nc(NC2CC3(CNC3)C2)ncc1-c1ccc(C(F)(F)F)cc1F [Example 122, N-(5-(2-fluoro-4-(trifluoromethyl)phenyl)-4-methyl-pyrimidin-2-yl)-2-azaspiro[3.3]heptan-6-amine] | 0.039 |
| Cc1nc(NC2CC23CCNCC3)ncc1-c1ccc(C(F)(F)F)cc1F (centres unmarked) [Example 123, N-(5-(2-fluoro-4-(trifluoromethyl)phenyl)-4-methyl-pyrimidin-2-yl)-6-azaspiro[2.5]octan-1-amine] | 0.15 |
| Cc1nc(N[C@H]2CCNC[C@@H]2F)ncc1-c1ccc(C(F)(F)F)cc1F [Example 124, 5-(2-fluoro-4-(trifluoromethyl)phenyl)-N-((3S,4S)-3-fluoropiperidin-4-yl)-4-methyl-pyrimidin-2-amine] | 0.903 |
| Cc1nc(N[C@H]2CCC[C@H](N)C2)ncc1-c1ccc(C(F)(F)F)cc1F [Example 125, (1S,3S)—N^1-(5-(2-fluoro-4-(trifluoromethyl)phenyl)-4-methyl-pyrimidin-2-yl)cyclohexane-1,3-diamine] | 0.223 |
| Cc1nc(NC2CC(C)(C)NC(C)(C)C2)ncc1-c1ccc(C(F)(F)F)cc1F [Example 126, 5-(2-fluoro-4-(trifluoromethyl)phenyl)-4-methyl-N-(2,2,6,6-tetramethylpiperidin-4-yl)pyrimidin-2-amine] | 0.259 |
| Cc1nc(NC[C@H]2CCCNC2)ncc1-c1ccc(C(F)(F)F)cc1F [Example 127, (S)-5-(2-fluoro-4-(trifluoromethyl)phenyl)-4-methyl-N-(piperidin-3-ylmethyl)pyrimidin-2-amine] | 0.119 |
| Cc1nc(NC[C@]2(C)CCCN2)ncc1-c1ccc(C(F)(F)F)cc1F [Example 134, (S)-5-(2-fluoro-4-(trifluoromethyl)phenyl)-4-methyl-N-((2-methyl-pyrrolidin-2-yl)methyl)pyrimidin-2-amine] | 0.101 |
| Cc1nc(NC[C@@]2(C)CCCN2)ncc1-c1ccc(C(F)(F)F)cc1F [Example 135, (R)-5-(2-fluoro-4-(trifluoromethyl)phenyl)-4-methyl-N-((2-methyl-pyrrolidin-2-yl)methyl)pyrimidin-2-amine] | 0.07 |
| Cc1nc(NC(=O)[C@H]2CCCN2C)ncc1-c1ccc(C(F)(F)F)cc1F [Example 139, (R)—N-(5-(2-fluoro-4-(trifluoromethyl)phenyl)-4-methyl-pyrimidin-2-yl)-1-methylpyrrolidine-2-carboxamide] | 0.086 |
| Cc1nc(NC(=O)[C@@H]2CCCN2C)ncc1-c1ccc(C(F)(F)F)cc1F [Example 140, (S)—N-(5-(2-fluoro-4-(trifluoromethyl)phenyl)-4-methyl-pyrimidin-2-yl)-1-methylpyrrolidine-2-carboxamide] | 0.079 |

same assay, conditions: IC50 (μM), HEK cell line stably expressing the receptor; 10 min pre-incubation, nicotine EC80; 10-point curve, duplicate wells

| Compound | IC50 [µM] |
| --- | --- |
| Cc1nc(N[C@@H]2CCCNC2)ncc1-c1ccc(C(F)(F)F)cc1F [Example 128, (R)-5-(2-fluoro-4-(trifluoromethyl)phenyl)-4-methyl-N-(piperidin-3-yl) pyrimidin-2-amine] | 0.18 |
| Cc1nc(NC[C@]2(C)CCCN2C)ncc1-c1ccc(C(F)(F)F)cc1F [Example 136, (S)—N-((1,2-dimethylpyrrolidin-2-yl)methyl)-5-(2-fluoro-4-(trifluoromethyl)phenyl)-4-methyl-pyrimidin-2-amine] | 0.096 |
| Cc1nc(NC[C@@]2(C)CCCN2C)ncc1-c1ccc(C(F)(F)F)cc1F [Example 137, (R)—N-((1,2-dimethylpyrrolidin-2-yl)methyl)-5-(2-fluoro-4-(trifluoromethyl)phenyl)-4-methyl-pyrimidin-2-amine] | 0.11 |
